Measured values reported in paper PMC11874377, “Fungal-derived methyldeoxaphomins target Plasmodium falciparum segregation through the inhibition of PfActin1” (Proceedings of the National Academy of Sciences of the …, 2025).
Where “and” joins values, the source holds several entries; their conditions need not be identical. Identical values can stand only once. Like-named read-outs stand apart in the source and are kept apart here.

Tests used:
[1] = tested on: in vitro evolved NPDG-F-resistant Dd2-Pol δ clones (PfActin1 mutations); experiment: Resistant parasite phenotyping and cross resistance, SYBR green I EC50 assay, NPDG-F-resistant clones; format: cell-based, Plasmodium falciparum; settings: for EC50: Plasmodium falciparum, read-out: EC50 (mean ± SEM)
Protocol: Cloning by limiting dilution was then performed to isolate individual lines from the bulk population. Due to the multiple mutations identified in the first biological replicate, we isolated four clones from this bulk culture as compared to two clones each from the second and third replicates. These clones were phenotyped via a SYBR green I-based dose–response assay (Table 2 and Fig. 2B). […] The DNA of these clones was then extracted and subjected to whole-genome sequencing.
To investigate whether NPDG-F has the same mode of action as cytochalasin D, we tested our clones for sensitivity to both cytochalasin D and jasplakinolide.
Resistant parasite phenotyping and cross resistance measurement
The EC50 assay was performed at 1% parasitemia, 1% hematocrit with SYBR green I in 96-well plates. The highest final concentration of the methyldeoxaphomin NPDG-F was set at 100 μM. Briefly, the compound was subjected to a 3-fold serial dilution with ten dilution points. Three technical replicates were set up at each dilution point. The Dd2-Pol δ parent line and the resistant parasites at 2% hematocrit and 1% parasitemia were added to the drug media at 1:1 ratio. The plate was incubated at 37°C for 72 hours in a chamber filled with a hypoxic gas mixture (3% oxygen, 5% carbon dioxide, and 92% nitrogen). After incubation, the cells were lysis with lysis buffer (20 mM Tris-HCL, 0.08% saponin, 5 mM EDTA, and 0.8% Triton X-100) containing SYBR green I (10,000X, Thermo Fisher, cat # S7563) overnight. Fluorescence was measured at 485nm excitation and 530nm emission using a PHERAstar FSX plate reader (BMG Labtech, Germany). Dose response curves were graphed with Prism 9 Version 9.5.1. […]

[2] = tested on: human HepG2 hepatoma cells; experiment: cells; format: cell-based; settings: for EC50: Homo sapiens
Protocol: (§1) The antiplasmodial activity of these analogs was assessed in P. falciparum asexual blood stage using a SYBR Green I-based assay. Compounds were tested in both the multidrug resistant line Dd2, and the chloroquine-sensitive line 3D7, to probe any potential for preexisting resistance. […] These methyldeoxaphomin analogs were also cross-screened for cytotoxicity in the human cell line HepG2 to determine their selectivity for the Plasmodium parasite. […] This effect was maintained with analog NPDG-F where both R1 and R2 were substituted with OH groups. […] In addition, the hydroxyl group at carbon 7 seems to be critical for function as a drastic loss of potency was found in NPDG-D as compared to B and C. […]
Cytotoxicity was assessed using an MTS (3-(4,5-Dimethylthiazol-2-yl)-5-(3-carboxymethoxyphenyl)-2-(4-sulfophenyl)-2H-tetrazolium) absorbance assay with human HepG2 hepatoma cells. Cells were maintained in MEM supplemented with 10%FBS, 1% Antibiotic/Antimycotic, 1 mM sodium pyruvate, and 0.15% sodium bicarbonate in a 5 % CO2, 95% air environment at 37°C. For the assay cells were seeded at a density of 2,250 cells per well on 384-well microtiter plates 24 h prior to compound addition. Following a 48-h incubation with compounds, MTS solution was added to wells and absorbance was read after 2-4 h on a Synergy Neo2 multimode reader (BioTek Winsooki, VT). Compound dose response curves and EC50 determination was performed using CDD Vault normalized to 5% triton and vehicle controls. […]

[3] = tested on: P. falciparum chloroquine-sensitive line 3D7; experiment: SYBR Green I-based antiplasmodial assay, asexual blood stage, 3D7; format: cell-based, Plasmodium falciparum
Protocol: as §1
Plasmodium blood stage culture
Parasite culture in the Chakrabarti lab was maintained following a modified Trager and Jensen protocol (Trager & Jensen, 1976) as previously described (Lee et al., 2021) with RPMI 1640 with 25 mM HEPES pH 7.4, 26 mM NaHCO3, 15 mg/L hypoxanthine, 0.5% Albumax II, 25 mg/L gentamycin, and 2% dextrose. Parasites were grown with human A+ erythrocytes obtained from Florida OneBlood. Cultures were kept in an incubator with 5% […]
Antiplasmodial activity screening
SYBR Green I-based fluorescence assay was performed as previously described (Lee et al., 2021) following protocols by Smilkstein et. al. (Smilkstein et al., 2004). Asynchronous Dd2 parasites were added to serially diluted compounds and incubated for 72 h at 5% CO2, 95% air at 37°C. Plates were then frozen at -80°C, thawed, and incubated for one hour with 1x SYBR Green I in a lysis buffer (20 mM Tris-HCL, 0.08% saponin, 5 mM EDTA, and 0.8% Triton X-100). Fluorescence was then read on a Synergy Neo2 multimode reader (BioTek Winsooki, VT). […]

For C=C1C(C)C2C(Cc3ccccc3)NC(=O)C23C(=O)C=CC(O)C(O)C(C)CC(C)CC=CC3C1O (stereo not shown) [Methyldeoxaphomin NPDG-F], the “average EC50 shift, clones from flasks 2 and 3” value ([1]; A136S) was 3.5 fold, the “average EC50 shift, clones from flask 1” value ([1]; A171V/S and I290L clones) was 2.6 fold and the EC50 ([1]; DD2, clone 1-C7, A171S (8%), A171V (92%), I290L) was 11.5 µM. The EC50 ([1]; DD2, clone 1-D6, A171S (3%), A171V (97%), I290L) was 7.79 µM, the EC50 ([1]; DD2, clone 1-D7, A171S (22%), A171V (78%), I290L) was 9.02 µM and the EC50 ([1]; DD2, clone 1-F3, A171S (4%), A171V (96%), I290L) was 7.04 µM. The EC50 ([1]; DD2, clone 2-C4, A136S) was 14.1 µM, the EC50 ([1]; DD2, clone 2-F5, A136S) was 10.2 µM and the EC50 ([1]; DD2, clone 3-C3, A136S) was 12.7 µM. For the same compound, the EC50 ([1]; DD2, clone 3-C5, A136S) was 10 µM, the Fold change ([1]; clone 1-C7 vs Dd2-Pol δ parent) was 3.3 and the Fold change ([1]; clone 1-D6 vs Dd2-Pol δ parent) was 2.3. For the same compound, the Fold change ([1]; clone 1-D7 vs Dd2-Pol δ parent) was 2.6, the Fold change ([1]; clone 1-F3 vs Dd2-Pol δ parent) was 2.1 and the Fold change ([1]; clone 2-C4 vs Dd2-Pol δ parent) was 4.1. For the same compound, the Fold change ([1]; clone 2-F5 vs Dd2-Pol δ parent) was 3.0, the Fold change ([1]; clone 3-C3 vs Dd2-Pol δ parent) was 3.7 and the Fold change ([1]; clone 3-C5 vs Dd2-Pol δ parent) was 2.9. For the same compound, the “cytotoxicity in HepG2 at the highest concentration tested” value ([2]; 25 µM) was “no signs of cytotoxicity”, the “Selectivity Index (SI)” value ([2]; HepG2 EC50/(mean of Dd2 EC50, 3D7 EC50)) was > 60 and the EC50 ([2]; HepG2, 48 h, means from triplicate experiments ± SEM, 48-h incubation, read-out: HepG2 EC50) was > 25 µM. For the same compound, the EC50 ([2]; HepG2, average ± SEM of three replicates, read-out: HepG2: Average EC50) was > 25 µM, the EC50 ([2]; HepG2, individual replicates, read-out: HepG2: EC50) was > 25 µM and the EC50 ([3]; Plasmodium falciparum, 3D7, abstract, read-out: EC50 in 3D7) was 0.29 µM. The EC50 ([3]; Plasmodium falciparum, 3D7, average ± SEM of three replicates, read-out: 3D7: Average EC50) was 0.29 ± 0.03 µM, the EC50 ([3]; Plasmodium falciparum, 3D7, individual replicates, read-out: 3D7: EC50) was 0.23 µM and the EC50 ([3]; Plasmodium falciparum, 3D7, means from triplicate experiments ± SEM, read-out: 3D7 EC50) was 0.29 ± 0.03 µM. For the same compound, the EC50 ([3]; individual replicates, read-out: 3D7: EC50) was 0.31 µM and 0.33 µM.
